Measurements as given in PubChem BioAssay AID1845199 (Molecular Pharmacology Branch, DTP, NCI, 2023).

Test system: 556581-035-R-J1 tumor spheroid viability, % test/control
Assay: Anticancer human tumor 556581-035-R-J1 patient-derived ovarian carcinoma cell line growth inhibition
Conditions: spheroids with HUVEC and MSC; for IC50: curve of first compound; for viability, T/C: stronger effect = lower value
Procedure, shortened: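 Complex spheroids of malignant cells with endothelial cells and mesenchymal stem cells; agents alone or combined, from near clinical Cmax (or 10 microM if unknown) down in half-log steps, 0.25% DMSO final.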

[1] = second compound 30 pM, first compound 0.0316 µM
[2] = second compound 30 pM, first compound 0.1 µM
[3] = second compound 30 pM, first compound 0.316 µM
[4] = second compound 30 pM, first compound 1 µM
[5] = second compound 30 pM, first compound 3.16 µM
[6] = second compound 30 pM, first compound 10 µM
[7] = second compound 94.9 pM, first compound 0.0316 µM
[8] = second compound 94.9 pM, first compound 0.1 µM
[9] = second compound 94.9 pM, first compound 0.316 µM
[10] = second compound 94.9 pM, first compound 1 µM
[11] = second compound 94.9 pM, first compound 3.16 µM
[12] = second compound 94.9 pM, first compound 10 µM
[13] = second compound 0.0003 µM, first compound 0.0316 µM
[14] = second compound 0.0003 µM, first compound 0.1 µM
[15] = second compound 0.0003 µM, first compound 0.316 µM
[16] = second compound 0.0003 µM, first compound 1 µM
[17] = second compound 0.0003 µM, first compound 3.16 µM
[18] = second compound 0.0003 µM, first compound 10 µM
[19] = second compound 0.000949 µM, first compound 0.0316 µM
[20] = second compound 0.000949 µM, first compound 0.1 µM
[21] = second compound 0.000949 µM, first compound 0.316 µM
[22] = second compound 0.000949 µM, first compound 1 µM
[23] = second compound 0.000949 µM, first compound 3.16 µM
[24] = second compound 0.000949 µM, first compound 10 µM
[25] = second compound 0.003 µM, first compound 0.0316 µM
[26] = second compound 0.003 µM, first compound 0.1 µM
[27] = second compound 0.003 µM, first compound 0.316 µM
[28] = second compound 0.003 µM, first compound 1 µM
[29] = second compound 0.003 µM, first compound 3.16 µM
[30] = second compound 0.003 µM, first compound 10 µM
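Note: spheroids exposed to compounds for 7 days before viability read.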

CC1COCCN1c1cc(-c2ccnn2C)c2ccnc(-c3ccn[nH]3)c2n1 (stereo not given) + COc1cc2c(cc1O)CCNC21CSC2c3c(OC(C)=O)c(C)c4c(c3C(COC1=O)N1C(O)C3Cc5cc(C)c(OC)c(O)c5C(C21)N3C)OCO4
IC50 (second compound 30 pM): 786 nM
IC50 (second compound 94.9 pM): 426 nM
IC50 (second compound 0.0003 µM): 59.2 nM
IC50 (second compound 0.000949 µM): < 31.6 nM
IC50 (second compound 0.003 µM): < 31.6 nM
viability, T/C [1]: 93.9%
viability, T/C [2]: 74.6%
viability, T/C [3]: 59.1%
viability, T/C [4]: 48.5%
viability, T/C [5]: 38.2%
viability, T/C [6]: 34.4%
viability, T/C [7]: 73.7%
viability, T/C [8]: 62.5%
viability, T/C [9]: 51.8%
viability, T/C [10]: 44.2%
viability, T/C [11]: 38%
viability, T/C [12]: 34.4%
viability, T/C [13]: 53.6%
viability, T/C [14]: 45.7%
viability, T/C [15]: 43.1%
viability, T/C [16]: 43.8%
viability, T/C [17]: 37.6%
viability, T/C [18]: 32.3%
viability, T/C [19]: 7.45%
viability, T/C [20]: 4.92%
viability, T/C [21]: 5.53%
viability, T/C [22]: 6.39%
viability, T/C [23]: 3.31%
viability, T/C [24]: 0.59%
viability, T/C [25]: 0.82%
viability, T/C [26]: 0.83%
viability, T/C [27]: 1.19%
viability, T/C [28]: 0.43%
viability, T/C [29]: 0.43%
viability, T/C [30]: 0.72%

COc1cc(C)[nH]c(=O)c1CN1CCc2c(Cl)cc(C(OC)C3COC3)c(Cl)c2C1=O (stereo not given) + COc1cc2c(cc1O)CCNC21CSC2c3c(OC(C)=O)c(C)c4c(c3C(COC1=O)N1C(O)C3Cc5cc(C)c(OC)c(O)c5C(C21)N3C)OCO4
IC50 (second compound 30 pM): > 10000 nM
IC50 (second compound 94.9 pM): > 10000 nM
IC50 (second compound 0.0003 µM): > 10000 nM
IC50 (second compound 0.000949 µM): < 31.6 nM
IC50 (second compound 0.003 µM): < 31.6 nM
viability, T/C [1]: 106%
viability, T/C [2]: 108%
viability, T/C [3]: 105%
viability, T/C [4]: 115%
viability, T/C [5]: 116%
viability, T/C [6]: 113%
viability, T/C [7]: 103%
viability, T/C [8]: 101%
viability, T/C [9]: 108%
viability, T/C [10]: 111%
viability, T/C [11]: 108%
viability, T/C [12]: 110%
viability, T/C [13]: 92.4%
viability, T/C [14]: 95%
viability, T/C [15]: 100%
viability, T/C [16]: 101%
viability, T/C [17]: 98.2%
viability, T/C [18]: 93.7%
viability, T/C [19]: 44.6%
viability, T/C [20]: 46.5%
viability, T/C [21]: 41.4%
viability, T/C [22]: 36.7%
viability, T/C [23]: 32.1%
viability, T/C [24]: 17.6%
viability, T/C [25]: 0.61%
viability, T/C [26]: 0.67%
viability, T/C [27]: 2.15%
viability, T/C [28]: 0.7%
viability, T/C [29]: 0.66%
viability, T/C [30]: 1.02%

Cc1cc(C)c(CNC(=O)c2cc(-c3ccc(CN4CCOCC4)cc3)cc3c2cnn3C2CCCC2)c(=O)[nH]1 + COc1cc2c(cc1O)CCNC21CSC2c3c(OC(C)=O)c(C)c4c(c3C(COC1=O)N1C(O)C3Cc5cc(C)c(OC)c(O)c5C(C21)N3C)OCO4
IC50 (second compound 30 pM): > 10000 nM
IC50 (second compound 94.9 pM): > 10000 nM
IC50 (second compound 0.0003 µM): > 10000 nM
IC50 (second compound 0.000949 µM): < 31.6 nM
IC50 (second compound 0.003 µM): < 31.6 nM
viability, T/C [1]: 100%
viability, T/C [2]: 108%
viability, T/C [3]: 105%
viability, T/C [4]: 117%
viability, T/C [5]: 112%
viability, T/C [6]: 97.5%
viability, T/C [7]: 109%
viability, T/C [8]: 108%
viability, T/C [9]: 110%
viability, T/C [10]: 109%
viability, T/C [11]: 110%
viability, T/C [12]: 88.3%
viability, T/C [13]: 99.9%
viability, T/C [14]: 100%
viability, T/C [15]: 103%
viability, T/C [16]: 103%
viability, T/C [17]: 98.4%
viability, T/C [18]: 88.3%
viability, T/C [19]: 45.2%
viability, T/C [20]: 43.5%
viability, T/C [21]: 46%
viability, T/C [22]: 30.7%
viability, T/C [23]: 24.5%
viability, T/C [24]: 11.6%
viability, T/C [25]: 1.01%
viability, T/C [26]: 0.92%
viability, T/C [27]: 0.9%
viability, T/C [28]: 0.75%
viability, T/C [29]: 0.82%
viability, T/C [30]: 1.15%

[2H]c1nc(C)nc([2H])c1-c1cc(NC[C@@H](C)c2cccc3c(C(=O)NC)ccnc23)ncn1 + COc1cc2c(cc1O)CCNC21CSC2c3c(OC(C)=O)c(C)c4c(c3C(COC1=O)N1C(O)C3Cc5cc(C)c(OC)c(O)c5C(C21)N3C)OCO4
IC50 (second compound 30 pM): > 10000 nM
IC50 (second compound 94.9 pM): > 10000 nM
IC50 (second compound 0.0003 µM): > 10000 nM
IC50 (second compound 0.000949 µM): < 31.6 nM
IC50 (second compound 0.003 µM): < 31.6 nM
viability, T/C [1]: 105%
viability, T/C [2]: 119%
viability, T/C [3]: 116%
viability, T/C [4]: 120%
viability, T/C [5]: 110%
viability, T/C [6]: 116%
viability, T/C [7]: 113%
viability, T/C [8]: 118%
viability, T/C [9]: 108%
viability, T/C [10]: 113%
viability, T/C [11]: 118%
viability, T/C [12]: 125%
viability, T/C [13]: 101%
viability, T/C [14]: 110%
viability, T/C [15]: 102%
viability, T/C [16]: 104%
viability, T/C [17]: 108%
viability, T/C [18]: 109%
viability, T/C [19]: 40.9%
viability, T/C [20]: 46.4%
viability, T/C [21]: 42.9%
viability, T/C [22]: 46.3%
viability, T/C [23]: 33.9%
viability, T/C [24]: 31.1%
viability, T/C [25]: 1.6%
viability, T/C [26]: 0.73%
viability, T/C [27]: 0.75%
viability, T/C [28]: 0.97%
viability, T/C [29]: 1.05%
viability, T/C [30]: 1.32%
